# Test results as given in US20240300977A1, “INHIBITORS OF DNA-DEPENDENT PROTEIN KINASE AND COMPOSITIONS AND USES THEREOF” (Intellia Therapeutics, Inc., priority 2021, published 2024).
# Where “and” joins values, the source holds several entries; their conditions need not be identical. Identical values can stand only once.
# Tests used:
# 697 ALL cells (697-luc2) [1] = assay: WT1 TCR T cell mediated cytotoxicity, luciferase assay; type: cell-based, human; conditions: WT1-T cells (HD1) engineered with inhibitor, 48h, duplicate values
# Description: (§1) The ability of WT1-TCR T cells engineered from donors 007HD and 008HD to kill hematological cancer cells expressing natural levels of WT1 and release cytokines was evaluated. TCR KO cells generated as described above but without TRAC/AAV addition were used as a negative, non-killing control. Briefly, T cells were co-cultured with luciferase expressing 697 ALL cells (697-luc2), or K562-luc2 cells transduced to express HLA-A*02:01 (K5692-HLA-A*02:01-luc2) at various effector to target (E:T) ratios (2:1, 1:1, 0.5:1) in TCEM without the addition of IL-2, IL-7, or IL-15. […] After 24h of co-culture, supernatants from the 2:1 E:T ratio group were harvested and used in an MSD U/R-PLEX assay to quantify IL-2, TNFα, IFNγ, and Granzyme B following manufacturers protocol (Mesoscale Discovery). After 48h of co-culture luciferase activity was quantified using the Bright-GLO Luciferase Assay System (Promega) in relative luminescence units (RLU). Percent specific lysis was determined using the formula:
# (§2) % Specific Lysis=100−((RLU[Experimental Well]/RLU[Target Only Well])*100)
# [2] = system: K562-luc2 cells transduced to express HLA-A*02:01; assay: as above; type: cell-based, human; conditions: WT1-T cells (HD1) engineered with inhibitor, K562-HLA-A*02:01, 48h, duplicate values
# Description: as §1, §2
# T cells [3] = assay: TRAC LNP editing and GFP insertion in activated T cells with DNA-PK inhibitors, flow cytometry; conditions: day 5 post-edit; for Mean % CD3^−/GFP+ Cells (n = 3): GFP positive of the CD3 negative T cells; for Mean % CD3^− Cells (n = 3): TRAC LNP + GFP AAV
# TRBC = assay: Off-target site validation, rhAmpSeq; conditions: gRNA G016239 targeting TRBC; of 92 off-target sites; with the named DNA-PKI or none
# TRAC = conditions: human
# T cells [4] = assay: Insertion percent in T cells of Example 17; type: cell-based, human; conditions: T cells from Example 12; FIG. 9B
# Text: (§3) On day 8 post-editing, T cells from Example 12 from the untreated, unedited, Compound 3 and Compound 4 guides samples were collected, spun down and the pellets were directly used as input material for gDNA isolation using “Zymo Quick DNA/RNA Mag Beads Kit” (Zymo Cat. R2131). The UnIT structural variant characterization assay was applied to these gDNA samples. High molecular weight genomic DNA is simultaneously fragmented and sequence-tagged (‘tagmented’) with the Tn5 transposase and an adapter with a partial Illumina P5 sequence and a 12 bp unique molecular identifier (UMI). Two sequential PCRs using a primer to P5 and hemi-nested gene specific primers (GSP) imparting the Illumina the P7 sequence to create two Illumina compatible NGS libraries per sample (Illumina, Ref 15033624). Sequencing across both directions of the CRISPR/Cas9 targeted cut site with the two libraries allows the inference and quantification of structural variants in DNA repair outcomes after genome editing. If the two fragments were aligned to different chromosomes, the SV was classified as an “inter-chromosomal translocation.” The magnitude of structural variation was shown in FIG. 9A and Table 18.
# T cells [5] = assay: Off-target structural variation by UnIT; type: cell-based, human; conditions: T cells from Example 12, day 8 post-editing; TRAC sgRNA G013006
# Text: as §3
# 697 ALL cells (697-luc2) [6] = assay: Cytokine release by WT1 TCR T cells, MSD U/R-PLEX; type: cell-based, human; design: unit not given here; conditions: 2:1 E:T, 24h supernatant, T cells engineered with inhibitor, duplicate values
# Description: as §1, with “formula: […]” for “formula:”
# [7] = system: K562-luc2 cells transduced to express HLA-A*02:01; assay: Cytokine release by WT1 TCR T cells, MSD U/R-PLEX; type: cell-based, human; design: unit not given here; conditions: K562-HLA-A2.1, 2:1 E:T, 24h supernatant, T cells engineered with inhibitor, duplicate values
# Description: as §1, with “formula: […]” for “formula:”
# T cells [8] = assay: Fold T cell expansion following TRBC/TRAC editing with WT1-TCR AAV and DNA-PK inhibitors; conditions: Table 4
smiles,measurement,setting,value
"Cc1cc2ncnn2cc1Nc1ncc2c(n1)n(C1CCOCC1)c(=O)n2C [Compound 1, 7-methyl-2-((7-methyl-[1,2,4]triazolo[1,5-a]pyridin-6-yl)amino)-9-(tetrahydro-2H-pyran-4-yl)-7,9-dihydro-8H-purin-8-one]",Percent specific lysis,"697 ALL cells (697-luc2) [1]; E:T 0.5, donor 007HD",12.14% and 5.54%
same,Percent specific lysis,"697 ALL cells (697-luc2) [1]; E:T 0.5, donor 008HD",43.47% and 44.29%
same,Percent specific lysis,"697 ALL cells (697-luc2) [1]; E:T 1, donor 007HD",29.28% and 30.44%
same,Percent specific lysis,"697 ALL cells (697-luc2) [1]; E:T 1, donor 008HD",77.92% and 81.24%
same,Percent specific lysis,"697 ALL cells (697-luc2) [1]; E:T 2, donor 007HD",65.54% and 61.43%
same,Percent specific lysis,"697 ALL cells (697-luc2) [1]; E:T 2, donor 008HD",98.09% and 98.25%
same,Percent specific lysis,"[2]; E:T 0.5, donor 007HD",37.10% and 36.80%
same,Percent specific lysis,"[2]; E:T 0.5, donor 008HD",56.76% and 58.18%
same,Percent specific lysis,"[2]; E:T 1, donor 007HD",69.32% and 70.95%
same,Percent specific lysis,"[2]; E:T 1, donor 008HD",83.56% and 79.54%
same,Percent specific lysis,"[2]; E:T 2, donor 007HD",95.40% and 92.50%
same,Percent specific lysis,"[2]; E:T 2, donor 008HD",99.29% and 99.66%
"CCn1c(=O)n(C2CCOCC2)c2nc(Nc3cn4ncnc4cc3C)ncc21 [Compound 2, 7-ethyl-2-((7-methyl-[1,2,4]triazolo[1,5-a]pyridin-6-yl)amino)-9-(tetrahydro-2H-pyran-4-yl)-7,9-dihydro-8H-purin-8-one]",Mean % CD3^−/GFP+ Cells (n = 3),T cells [3]; compound 0.0625 uM,47.93%
same,Mean % CD3^−/GFP+ Cells (n = 3),T cells [3]; compound 1 uM,79.40%
"Cc1cc2ncnn2cc1Nc1ncc2c(n1)n(C1CCC(F)(F)CC1)c(=O)n2C [Compound 3, 9-(4,4-difluorocyclohexyl)-7-methyl-2-((7-methyl-[1,2,4]triazolo[1,5-a]pyridin-6-yl)amino)-7,9-dihydro-8H-purin-8-one]",Mean % CD3^−/GFP+ Cells (n = 3),T cells [3]; compound 0.0625 uM,75.50%
same,Mean % CD3^− Cells (n = 3),T cells [3]; compound 0.0625 uM,50.73%
same,Mean % CD3^−/GFP+ Cells (n = 3),T cells [3]; compound 1 uM,79.60%
same,Mean % CD3^− Cells (n = 3),T cells [3]; compound 1 uM,58.90%
same,Sites Validated,TRBC,0
same,Sites Validated,TRAC,0
same,Insertion Percent (Average),T cells [4],68.35%
same,Unintended Structural Variance (Average),T cells [5],1.30%
same,Percent specific lysis,"697 ALL cells (697-luc2) [1]; E:T 0.5, donor 007HD",4.60% and 2.72%
same,Percent specific lysis,"697 ALL cells (697-luc2) [1]; E:T 0.5, donor 008HD",63.10% and 72.62%
same,Percent specific lysis,"697 ALL cells (697-luc2) [1]; E:T 1, donor 007HD",39.43% and 30.39%
same,Percent specific lysis,"697 ALL cells (697-luc2) [1]; E:T 1, donor 008HD",95.29% and 94.31%
same,Percent specific lysis,"697 ALL cells (697-luc2) [1]; E:T 2, donor 007HD",77.64% and 65.49%
same,Percent specific lysis,"697 ALL cells (697-luc2) [1]; E:T 2, donor 008HD",98.98% and 98.97%
same,Percent specific lysis,"[2]; E:T 0.5, donor 007HD",47.03% and 41.52%
same,Percent specific lysis,"[2]; E:T 0.5, donor 008HD",72.45% and 71.77%
same,Percent specific lysis,"[2]; E:T 1, donor 007HD",78.53% and 75.83%
same,Percent specific lysis,"[2]; E:T 1, donor 008HD",98.67% and 99.08%
same,Percent specific lysis,"[2]; E:T 2, donor 007HD",98.79% and 96.99%
same,Percent specific lysis,"[2]; E:T 2, donor 008HD",99.96% and 99.84%
same,Granzyme B,697 ALL cells (697-luc2) [6]; donor 007HD,1441.06 and 1664.25
same,IFN-gamma,697 ALL cells (697-luc2) [6]; donor 007HD,923.97 and 977.71
same,IL-2,697 ALL cells (697-luc2) [6]; donor 007HD,2.23 and 4.32
same,TNF-alpha,697 ALL cells (697-luc2) [6]; donor 007HD,5.29 and 3.46
same,Granzyme B,697 ALL cells (697-luc2) [6]; donor 008HD,1777.28 and 1609.68
same,IFN-gamma,697 ALL cells (697-luc2) [6]; donor 008HD,7169.43 and 6733.05
same,IL-2,697 ALL cells (697-luc2) [6]; donor 008HD,8.1 and 7.14
same,TNF-alpha,697 ALL cells (697-luc2) [6]; donor 008HD,18.57 and 16.3
same,Granzyme B,[7]; donor 007HD,17178.54 and 20713.6
same,IFN-gamma,[7]; donor 007HD,41527.06 and 59686.42
same,TNF-alpha,[7]; donor 007HD,66.56 and 73.76
same,Granzyme B,[7]; donor 008HD,17134.42 and 18197.02
same,IFN-gamma,[7]; donor 008HD,200584.6 and 216197.4
same,IL-2,[7]; donor 008HD,484.52 and 524.89
same,TNF-alpha,[7]; donor 008HD,302.06 and 324.18
"Cc1cc2ncnn2cc1Nc1ncc2c(n1)n(C1CC(O)C1)c(=O)n2C (stereo not shown) [Compound 5, 9-(3-hydroxycyclobutyl)-7-methyl-2-((7-methyl-[1,2,4]triazolo[1,5-a]pyridin-6-yl)amino)-7,9-dihydro-8H-purin-8-one]",Mean % CD3^−/GFP+ Cells (n = 3),T cells [3]; compound 0.0625 uM,53.00%
same,Mean % CD3^−/GFP+ Cells (n = 3),T cells [3]; compound 1 uM,78.97%
"Cc1cc2ncnn2cc1Nc1cc2c(cn1)n(C)c(=O)n2C1CCOCC1 [Compound 6, 3-methyl-6-((7-methyl-[1,2,4]triazolo[1,5-a]pyridin-6-yl)amino)-1-(tetrahydro-2H-pyran-4-yl)-1,3-dihydro-2H-imidazo[4,5-c]pyridin-2-one]",Mean % CD3^−/GFP+ Cells (n = 3),T cells [3]; compound 0.0625 uM,35.10%
same,Mean % CD3^− Cells (n = 3),T cells [3]; compound 0.0625 uM,33.87%
same,Mean % CD3^−/GFP+ Cells (n = 3),T cells [3]; compound 1 uM,74.40%
same,Mean % CD3^− Cells (n = 3),T cells [3]; compound 1 uM,58.30%
same,impact of T cell expansion by DNA-PK treatment,T cells [8],no impact
"Cc1cc2ncnn2c(C)c1Nc1cc2c(cn1)n(C)c(=O)n2C1CCOCC1 [Compound 7, 6-((5,7-dimethyl-[1,2,4]triazolo[1,5-a]pyridin-6-yl)amino)-3-methyl-1-(tetrahydro-2H-pyran-4-yl)-1,3-dihydro-2H-imidazo[4,5-c]pyridin-2-one]",Mean % CD3^−/GFP+ Cells (n = 3),T cells [3]; compound 0.0625 uM,29.90%
same,Mean % CD3^−/GFP+ Cells (n = 3),T cells [3]; compound 1 uM,43.43%
same,impact of T cell expansion by DNA-PK treatment,T cells [8],no impact
"Cc1cc2ncnn2c(C)c1Nc1ncc2c(n1)n(C1CCOCC1)c(=O)n2C [Compound 8, 2-((5,7-dimethyl-[1,2,4]triazolo[1,5-a]pyridin-6-yl)amino)-7-methyl-9-(tetrahydro-2H-pyran-4-yl)-7,9-dihydro-8H-purin-8-one]",Mean % CD3^−/GFP+ Cells (n = 3),T cells [3]; compound 0.0625 uM,32.23%
same,Mean % CD3^−/GFP+ Cells (n = 3),T cells [3]; compound 1 uM,70.07%
same,impact of T cell expansion by DNA-PK treatment,T cells [8],no impact
"Cc1cc2ncnn2cc1Nc1ncc2c(c1C)n(C1CCOCC1)c(=O)n2C [Compound 9, 3,7-dimethyl-6-((7-methyl-[1,2,4]triazolo[1,5-a]pyridin-6-yl)amino)-1-(tetrahydro-2H-pyran-4-yl)-1,3-dihydro-2H-imidazo[4,5-c]pyridin-2-one]",Mean % CD3^−/GFP+ Cells (n = 3),T cells [3]; compound 0.0625 uM,28.27%
same,Mean % CD3^−/GFP+ Cells (n = 3),T cells [3]; compound 1 uM,27.83%
